The values that follow come from paper PMC8401042, “Non-Toxic Dimeric Peptides Derived from the Bothropstoxin-I Are Potent SARS-CoV-2 and Papain-like Protease Inhibitors” (Molecules, 2021).

Where two headings read alike, the source gives them in different places. Bridge positions count the residues as written; N and C are the ends. Peptide text beside a SMILES is read from it. I, II: the chains in the order shown. Where only a bound is given, the exact number is not on record here.

In assay [1] the target is T1, SARS-CoV-2 PLpro (Severe acute respiratory syndrome coronavirus 2, UniProt P0DTD1). The assay is described as follows: SARS-CoV-2 PLpro FRET enzyme inhibition assay. The format is biochemical. As to conditions: for inhibition at 10 µM: 10 µM peptide, 27 µM substrate, 37 °C.
Assay [2] has as its target T1, SARS-CoV-2 PLpro. Kind of assay: Microscale thermophoresis (MST) binding assay. To be noted: 100 nM labelled PLpro, peptides 0.015 to 500 µM, 50 mM HEPES pH 7.5, 100 mM NaCl, 2 mM DTT, DMSO 5%; triplicate, Hill fit. (Microscale thermophoresis detects binding through changes in fluorescence in a small temperature gradient.)
The next assay concerns SARS-CoV-2. To be noted: for SARS-CoV-2 % of inhibition at 100 µM: 24 h.
Where [3] appears, read: calculated from IC50 values, Figure 3A, read-out: pIC50 (−logIC50), PLpro (converted).

The inhibition is how much of the control response was suppressed. A higher inhibition goes with a strong effect. What is called Kd is a measure of binding affinity in units of concentration. Read a high Kd as lower affinity. `CC(C)C[C@H](NC(=O)[C@H](Cc1c[nH]cn1)NC(=O)[C@H](Cc1ccc(O)cc1)NC(=O)[C@H](CCCNC(=N)N)NC(=O)[C@H](Cc1ccc(O)cc1)NC(=O)[C@H](CCCCN)NC(=O)[C@@H](N)CCCCN)C(=O)N[C@@H](CCCCN)C(=O)N1CCC[C@H]1C(=O)N[C@@H](Cc1ccccc1)C(=O)NCCCC[C@H](NC(=O)[C@H](Cc1ccccc1)NC(=O)[C@@H]1CCCN1C(=O)[C@H](CCCCN)NC(=O)[C@H](CC(C)C)NC(=O)[C@H](Cc1c[nH]cn1)NC(=O)[C@H](Cc1ccc(O)cc1)NC(=O)[C@H](CCCNC(=N)N)NC(=O)[C@H](Cc1ccc(O)cc1)NC(=O)[C@H](CCCCN)NC(=O)[C@@H](N)CCCCN)C(N)=O` [(pBthTX-I)2K, des-Cys^11,Lys^12,Lys^13-(pBthTX-I)2K] (I: H-KKYRYHLKPFK-NH2 / II: H-KKYRYHLKPF; amide I:11-II:C): at SARS-CoV-2 PLpro [1] (70 nM enzyme), the inhibition at 10 µM worked out at 98%. Besides, the IC50 at SARS-CoV-2 PLpro [1] (setting [3]) is 2400 nM. In addition, the affinity at SARS-CoV-2 PLpro [2], expressed as Kd, was 900 ± 100 nM.

As to `CC(C)C[C@H](NC(=O)[C@H](Cc1c[nH]cn1)NC(=O)[C@H](Cc1ccc(O)cc1)NC(=O)[C@H](CCCNC(=N)N)NC(=O)[C@H](Cc1ccc(O)cc1)NC(=O)[C@H](CCCCN)NC(=O)[C@@H](N)CCCCN)C(=O)N[C@@H](C)C(=O)N1CCC[C@H]1C(=O)N[C@@H](Cc1ccccc1)C(=O)NCCCC[C@H](NC(=O)[C@H](Cc1ccccc1)NC(=O)[C@@H]1CCCN1C(=O)[C@H](C)NC(=O)[C@H](CC(C)C)NC(=O)[C@H](Cc1c[nH]cn1)NC(=O)[C@H](Cc1ccc(O)cc1)NC(=O)[C@H](CCCNC(=N)N)NC(=O)[C@H](Cc1ccc(O)cc1)NC(=O)[C@H](CCCCN)NC(=O)[C@@H](N)CCCCN)C(N)=O` [A8] (I: H-KKYRYHLAPFK-NH2 / II: H-KKYRYHLAPF; amide I:11-II:C), on SARS-CoV-2 PLpro [1] (70 nM enzyme), the inhibition at 10 µM was determined as 99%. Also, at SARS-CoV-2 PLpro [1] (setting [3]), the IC50 was 2400 nM.

Take `CC(C)C[C@H](NC(=O)[C@H](Cc1c[nH]cn1)NC(=O)[C@H](Cc1ccc(O)cc1)NC(=O)[C@H](CCCNC(=N)N)NC(=O)[C@H](Cc1ccc(O)cc1)NC(=O)[C@H](CCCCN)NC(=O)[C@@H](N)CCCCN)C(=O)N[C@@H](CCCCN)C(=O)N1CCC[C@H]1C(=O)N[C@@H](C)C(=O)NCCCC[C@H](NC(=O)[C@H](C)NC(=O)[C@@H]1CCCN1C(=O)[C@H](CCCCN)NC(=O)[C@H](CC(C)C)NC(=O)[C@H](Cc1c[nH]cn1)NC(=O)[C@H](Cc1ccc(O)cc1)NC(=O)[C@H](CCCNC(=N)N)NC(=O)[C@H](Cc1ccc(O)cc1)NC(=O)[C@H](CCCCN)NC(=O)[C@@H](N)CCCCN)C(N)=O` [A10] (I: H-KKYRYHLKPAK-NH2 / II: H-KKYRYHLKPA; amide I:11-II:C): at SARS-CoV-2 PLpro [1] (70 nM enzyme, 27 µM FRET substrate, 50 mM HEPES pH 7.5, 0.01% Triton X-100, 5 mM DTT, 30 min pre-incubation at 37 °C, Hill fit, two independent experiments, read-out: IC50 against PLpro), the IC50 was determined as 2400 ± 200 nM. Also, testing at 10 µM on SARS-CoV-2 PLpro [1] (70 nM enzyme) gave an inhibition of 98%. Also, the “SARS-CoV-2 % of inhibition at 100 µM” value in the assay with SARS-CoV-2 was determined as 7%.

For the molecule `Cc1c(-c2ccc(-c3ccccc3F)cc2)nc2ccc(F)cc2c1C(=O)O` [BREQ, brequinar, reference compound], in the assay with SARS-CoV-2 (CC50/EC50 in Vero cells), the “SI = selectivity index (CC50/EC50)” value is on record as greater than 25.

Regarding `CC[C@H](C)[C@H](N)C(=O)N[C@@H](Cc1ccccc1)C(=O)NCC(=O)N[C@@H](C)C(=O)N[C@H](C(=O)N[C@@H](CC(C)C)C(=O)N1CCC[C@H]1C(=O)N[C@@H](CC(C)C)C(=O)N[C@@H](C)C(=O)N[C@@H](CC(C)C)C(=O)NCC(=O)N[C@@H](C)C(=O)N[C@@H](CC(C)C)C(=O)N[C@@H](CCCCN)C(=O)N[C@@H](CC(N)=O)C(=O)N[C@@H](CC(C)C)C(=O)N[C@H](C(=O)N[C@@H](CCCCN)C(N)=O)[C@@H](C)CC)[C@@H](C)CC` [Hy-a1, Hylin a1, reference compound] (H-IFGAILPLALGALKNLIK-NH2; N-terminus and C-terminus assumed), the inhibition at 10 µM on SARS-CoV-2 PLpro [1] (70 nM enzyme) was 13%. Also, in the assay with SARS-CoV-2, the “SARS-CoV-2 % of inhibition at 100 µM” value amounted to 59%.
